Biological target: T1, Human AMPK α2ß2γ1 (Homo sapiens, UniProt O43741+P54646)
T1 construct: The full length cDNAs of human AMPK ß2 (NM_005399.3) and human AMPK α2 (NM_006252.3); The full length cDNAs of human AMPK ß2 (NM_005399.3); 6xHis (N); made in house; host or cells: Escherichia coli BL21 CodonPlus (DE3)-RIL
Assay: Test Example 2: evaluation of an activator for AMP-activated protein kinase (AMPK), LabChip mobility shift assay with CaMKK2-phosphorylated enzyme
Format: biochemical
Details: for EC150 (compound concentration showing 150% relative to the control (100%)): FL-Peptide 7 substrate, 25° C., 2 hours; for Emax / Emax (maximum rate of increase in activity within the measurement range): relative to control (100%); for Emax: read-out: Emax (maximum rate of increase in activity within the measurement range)
Procedure: The full length cDNAs of human AMPK ß2 (NM_005399.3) and human AMPK α2 (NM_006252.3) were inserted into the MCS1 and MCS2 of the pETDuet-1 vector to prepare a human AMPK ß2 and human AMPK α2 (6× His tag at the 5′ terminus) expressing plasmid. The plasmid was cotransfected with an expression plasmid, in which the full length cDNA of human AMPK γ1 (NM_002733.3) had been inserted into pET28b(+), into BL21 CodonPlus (DE3)-RIL to obtain an expression strain. The expression strain was cultured in TB medium, followed by induction with 0.5 mM IPTG, and cultured at 25° C. for 3 hours and then harvested. After ultrasonication, supernatant was collected and applied to Histrap FF column (GE) and RESOURCE Q column (GE) to prepare 12.5 mg of purified sample containing three types of subunit from 1.8 L of broth.
Preparation method of human CaMKK2 used to impart activity to AMPK An expression vector, in which the full length cDNA of human CAMKK ß (NM_172226.1) had been inserted into pGEX-6P-3, was transfected into BL21 Star (DE3). The expression strain was cultured in TB medium, followed by induction with 0.5 mM IPTG, and cultured at 25° C. for 3 hours and then harvested. After ultrasonication, supernatant was collected and applied to GSTrap FF column (GE) to prepare 14 mg of GST-fused CAMKK ß from 720 ml of broth.
Thus, phosphorylation treatment was carried out as pretreatment.
Human AMPK α2ß2γ1 in an amount to give a conversion rate of approximately 10% by reaction for 2 hours, and CaMKK2 in an amount capable of sufficiently imparting activity to AMPK for one hour were mixed in a buffer solution consisting of a 50 mM HEPES-NaOH buffer solution (pH 7.0), 100 mM NaCl, 5 mM magnesium chloride, 0.1% bovine serum albumin, 0.2 mM sodium orthovanadate(V), 1 mM ethylene glycol-bis(2-aminoethyl ether)-N,N,N′,N′-tetraacetic acid (EGTA), 5 mM disodium ß-glycerophosphate, 1 mM dithiothreitol and 0.2 mM ATP, and the resulting liquid was left to stand at 25° C. for 1 to 1.5 hours to sufficiently phosphorylate AMPK.
After that, to the enzyme liquid, which had been subjected to phosphorylation treatment, a compound dissolved in DMSO was added so as to have a 1% DMSO concentration. The resulting liquid was left to stand for 10 minutes.
To the liquid, a substrate solution consisting of a 50 mM HEPES-NaOH buffer solution (pH 7.0), 100 mM NaCl, 10 mM magnesium chloride, 0.1% bovine serum albumin, 0.2 mM sodium orthovanadate(V), 1 mM ethylene glycol-bis(2-aminoethyl ether)-N,N,N′,N′-tetraacetic acid (EGTA), 5 mM disodium ß-glycerophosphate, 2 mM dithiothreitol, 0.4 mM ATP and 3 μM FL-Peptide 7 (manufactured by Caliper Life Sciences, Inc.) was added in equal amount (10 μl in total). The resulting liquid was allowed to react at 25° C. for 2 hours, and 10 μl of 20 mM EDTA was added thereto to stop the reaction.
To detect phosphorylated fluorescent substrates, the reaction mixture was applied to a measuring device, LabChip EZ Reader II manufactured by Caliper Life Science, Inc., for detecting fluorescence by using differences in mobility due to differences in charge. The setting conditions for the device were pressure, −1.5 PSI; upstream voltage, −2250 V; downstream voltage, −400 V; post sample buffer sip time, 40 seconds; final delay, 120 seconds; and peak order, Product First.
A conversion rate was calculated from the peak heights of the obtained substrate and product. The conversion rate when not containing a compound was used as a control, and a concentration dependent curve was made by plotting the rate of increase in activity to the control at each concentration of a compound.

T1 sequence (P54646 whole entry): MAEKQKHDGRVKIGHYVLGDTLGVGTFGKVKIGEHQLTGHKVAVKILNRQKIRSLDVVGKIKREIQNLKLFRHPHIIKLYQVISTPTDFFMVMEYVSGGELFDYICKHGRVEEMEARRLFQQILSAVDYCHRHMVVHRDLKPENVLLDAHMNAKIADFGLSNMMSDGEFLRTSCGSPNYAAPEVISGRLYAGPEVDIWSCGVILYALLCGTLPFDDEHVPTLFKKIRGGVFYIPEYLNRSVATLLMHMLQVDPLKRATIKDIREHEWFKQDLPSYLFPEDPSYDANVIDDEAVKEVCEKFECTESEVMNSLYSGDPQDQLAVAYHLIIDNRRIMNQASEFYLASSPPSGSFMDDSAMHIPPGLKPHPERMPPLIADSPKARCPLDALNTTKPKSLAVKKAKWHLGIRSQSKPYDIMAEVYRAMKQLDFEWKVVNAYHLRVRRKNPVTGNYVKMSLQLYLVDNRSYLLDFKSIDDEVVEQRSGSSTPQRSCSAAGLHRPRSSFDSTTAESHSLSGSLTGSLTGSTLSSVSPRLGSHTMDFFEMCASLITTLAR
T1 sequence (O43741 whole entry): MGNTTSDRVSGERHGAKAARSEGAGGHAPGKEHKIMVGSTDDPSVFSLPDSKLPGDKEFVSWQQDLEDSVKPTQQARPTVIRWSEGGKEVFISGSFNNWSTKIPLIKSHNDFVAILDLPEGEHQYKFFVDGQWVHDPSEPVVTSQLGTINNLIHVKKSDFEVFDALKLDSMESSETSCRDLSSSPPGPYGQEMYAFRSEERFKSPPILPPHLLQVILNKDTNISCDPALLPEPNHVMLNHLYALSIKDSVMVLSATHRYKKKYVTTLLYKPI
T1 sequence (P54619 whole entry partner): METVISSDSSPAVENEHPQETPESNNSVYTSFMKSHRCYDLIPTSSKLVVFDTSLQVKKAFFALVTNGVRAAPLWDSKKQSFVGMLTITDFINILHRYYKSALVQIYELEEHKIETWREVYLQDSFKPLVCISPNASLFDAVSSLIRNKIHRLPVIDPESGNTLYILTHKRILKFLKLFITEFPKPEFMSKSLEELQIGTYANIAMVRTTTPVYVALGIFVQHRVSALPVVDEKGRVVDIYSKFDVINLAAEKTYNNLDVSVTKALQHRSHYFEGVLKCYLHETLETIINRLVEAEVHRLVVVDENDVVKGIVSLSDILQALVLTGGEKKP

Compound | EC150 (compound concentration showing 150% relative to the control (100%)) [nM] | Emax [%] | Emax (maximum rate of increase in activity within the measurement range) [%]
OCCCOc1cc(F)c2c(c1)CCC2Nc1nc2nc(O[C@@H]3CO[C@H]4[C@@H]3OC[C@H]4O)[nH]c2cc1Cl (some centres unmarked) [Compound I-1-81] | 1.6 | 387 | –
O[C@@H]1CO[C@H]2[C@@H]1OC[C@H]2Oc1nc2nc(NC3CCc4cc(OCC5CCO5)cc(F)c43)c(Cl)cc2[nH]1 (some centres unmarked) [Compound I-1-83] | 2.2 | 414 | –
COc1ccc(-c2cc(F)c3c(c2)CCC3Nc2nc3nc(O[C@@H]4CO[C@H]5[C@@H]4OC[C@H]5O)[nH]c3cc2Cl)cn1 (some centres unmarked) [Compound I-1-86] | 28 | – | 379
CC(C)(O)CCOc1cc(F)c2c(c1)CCC2Nc1nc2nc(O[C@@H]3CO[C@H]4[C@@H]3OC[C@H]4O)[nH]c2cc1Cl (some centres unmarked) [Compound I-1-88] | 5.9 | 376 | –
CCOc1cc(F)c2c(c1)CCC2Nc1nc2nc(O[C@@H]3CO[C@H]4[C@@H]3OC[C@H]4O)[nH]c2cc1Cl (some centres unmarked) [Compound I-1-90] | 11 | 382 | –
O[C@@H]1CO[C@H]2[C@@H]1OC[C@H]2Oc1nc2nc(NC3CCc4cc(-c5ccnnc5)cc(F)c43)c(Cl)cc2[nH]1 (some centres unmarked) [Compound I-1-91] | 1.2 | 466 | –
O[C@@H]1CO[C@H]2[C@@H]1OC[C@H]2Oc1nc2nc(NC3CCc4cc(OC5CCNCC5)cc(F)c43)c(Cl)cc2[nH]1 (some centres unmarked) [Compound I-1-93] | 4 | 444 | –
COC/C=C/c1cc(F)c2c(c1)CC[C@@H]2Nc1nc2nc(O[C@@H]3CO[C@H]4[C@@H]3OC[C@H]4O)[nH]c2cc1Cl [Compound I-1-94] | 5.6 | 416 | –
CCOCCOc1cc(F)c2c(c1)CC[C@@H]2Nc1nc2nc(O[C@@H]3CO[C@H]4[C@@H]3OC[C@H]4O)[nH]c2cc1Cl [Compound I-1-95] | 1.3 | 424 | –
O[C@@H]1CO[C@H]2[C@@H]1OC[C@H]2Oc1nc2nc(NC3CCc4cc(OCCN5CCOCC5)cc(F)c43)c(Cl)cc2[nH]1 (some centres unmarked) [Compound I-1-96] | 3.6 | 430 | –
O[C@@H]1CO[C@H]2[C@@H]1OC[C@H]2Oc1nc2nc(NC3CCc4cc(OCCN5CCCC5)cc(F)c43)c(Cl)cc2[nH]1 (some centres unmarked) [Compound I-1-97] | 2.1 | 433 | –
O=C1CCCN1CCOc1cc(F)c2c(c1)CCC2Nc1nc2nc(O[C@@H]3CO[C@H]4[C@@H]3OC[C@H]4O)[nH]c2cc1Cl (some centres unmarked) [Compound I-1-98] | 3.6 | – | 434
O[C@@H]1CO[C@H]2[C@@H]1OC[C@H]2Oc1nc2nc(NC3CCc4cc(OCC5(F)COC5)cc(F)c43)c(Cl)cc2[nH]1 (some centres unmarked) [Compound I-1-99] | 4.6 | 422 | –
OCC/C=C/c1cc(F)c2c(c1)CCC2Nc1nc2nc(O[C@@H]3CO[C@H]4[C@@H]3OC[C@H]4O)[nH]c2cc1Cl (some centres unmarked) [Compound I-1-100] | 3.5 | 441 | –
COCCOc1cc(F)c2c(c1)CCC2Nc1nc2nc(O[C@@H]3CO[C@H](CO)C3)[nH]c2cc1Cl (some centres unmarked) [Compound I-1-104] | 2.3 | 423 | –
COCC(=O)Nc1cc(F)c2c(c1)CCC2Nc1nc2nc(O[C@@H]3CO[C@H]4[C@@H]3OC[C@H]4O)[nH]c2cc1Cl (some centres unmarked) [Compound I-1-105] | 4.1 | 434 | –

— patent publication US20190135834A1, “5-SUBSTITUTED AZABENZIMIDAZOLE DERIVATIVE HAVING ???? ACTIVATION ACTION” (Shionogi & Co., Ltd., priority 2016, published 2019)
